Data on 1 molecule can be found in patent publication US20060173015A1, “Cyclohexyldiamines as selective alpha 1a/1d adrenoreceptor antagonists for the treatment of benign prostatic hypertrophy and lower urinary tract symptoms” (priority 2004, published 2006).

The test concerns the target T1, α1d-AR (Homo sapiens, UniProt P25100).
T1 construct: expressed in transfected cells; host or cells: COS-7
T1 sequence (P25100 1-572): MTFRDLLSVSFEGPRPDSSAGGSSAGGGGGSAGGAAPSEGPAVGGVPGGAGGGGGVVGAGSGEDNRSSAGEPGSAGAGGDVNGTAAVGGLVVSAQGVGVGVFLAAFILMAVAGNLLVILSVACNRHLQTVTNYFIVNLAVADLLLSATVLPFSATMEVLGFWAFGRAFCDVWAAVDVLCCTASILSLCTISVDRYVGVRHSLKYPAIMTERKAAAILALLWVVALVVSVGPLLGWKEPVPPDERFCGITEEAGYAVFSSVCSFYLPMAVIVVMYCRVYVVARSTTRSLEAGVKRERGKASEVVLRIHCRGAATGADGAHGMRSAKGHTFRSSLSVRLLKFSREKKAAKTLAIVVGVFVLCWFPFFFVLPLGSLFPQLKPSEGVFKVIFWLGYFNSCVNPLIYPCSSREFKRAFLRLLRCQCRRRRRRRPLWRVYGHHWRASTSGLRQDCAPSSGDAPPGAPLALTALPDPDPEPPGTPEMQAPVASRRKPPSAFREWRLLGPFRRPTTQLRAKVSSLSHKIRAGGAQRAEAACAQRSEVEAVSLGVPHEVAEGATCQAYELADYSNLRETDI
The experiment in a line: α1-Adrenergic receptor radio-ligand (125I-HEAT) binding assay, α1d subtype. As to conditions: COS-7 cell membranes, 125I-HEAT; read-out: Receptor Binding, Ki α1d-AR.

Molecules are shown by their SMILES.

What is called Ki is the equilibrium dissociation constant of an inhibitor or competing ligand from its target.

Regarding `COc1ccc(S(=O)(=O)N[C@H]2CC[C@@H](N3CCN(c4ccccc4OCC(F)(F)F)CC3)CC2)cc1OC` [Cpd 69, 3,4-Dimethoxy-N-cis-(4-{4-[2-(2,2,2-trifluoro-ethoxy)-phenyl]-piperazin-1-yl}-cyclohexyl)-benzenesulfonamide], the Ki came to 0.92 nM.
